Data published in patent publication US11400106B2, “Methods for inhibiting microbe growth” (priority 2018, dated 2022).
Like-named read-outs stand apart in the source and are kept apart here. Marks after values point to notes of the source that are not given here.

What was measured:
[1] = tested on: S. aureus; assay: FIC index of pentamidine combined with various salts (checkerboard); format: cell-based, Staphylococcus aureus; details: combination of pentamidine isethionate with each salt; FICI≤0.5 synergy, 1-2 additivity, >4 antagonism
Method: (§1) In the following experiments, bacterial cells were cultured in 96-well microtiter plates in cation-adjusted Mueller-Hinton Broth (MHB) for 18 h at 37° C. The main strains used were E. coli (K-12 BW25113) (placed in stationary incubator) and S. aureus (Newman Strain) (incubated at 250 r.p.m). Knockout strains (ΔtolcC and ΔychM) were used from the Keio knockout collection (Baba et al., Construction of Escherichia coli K-12 in-frame, single-gene knockout mutants: the Keio collection. Mol Syst Biol 2, 2006 0008, doi:10.1038/msb4100050 (2006)). For MIC determination and checkerboard analyses, Clinical & Laboratory Standards Institute (CLSI) protocol was used. […] DiSC3 loading of S. aureus cells was performed as previously described (Farha et al., Collapsing the proton motive force to identify synergistic combinations against Staphylococcus aureus. Chemistry & biology 20, 1168-1178, doi:10.1016/j.chembiol.2013.07.006 (2013)). CCCP concentration of 20 μM was used. pH adjustments were made by addition of HCl or NaOH. INT assay and ATP bioluminescence assays were performed as previously described (Farha et al., Collapsing the proton motive force to identify synergistic combinations against Staphylococcus aureus. Chemistry & biology 20, 1168-1178, doi:10.1016/j.chembiol.2013.07.006 (2013)). For chemical-genomic studies, the Keio library was grown overnight in cation-adjusted MHB broth, in 384-well plates. From these, treatment plates (25 mM sodium bicarbonate, or a sterile water control) were inoculated and grown for 15 hours at 37° C., in a stationary incubator. Data was normalized according to Mangat et al (Mangat et al., Rank ordering plate data facilitates data visualization and normalization in high-throughput screening. J Biomol Screen 19, 1314-1320, doi:10.1177/1087057114534298 (2014)), with gene products and GO terms mined from EcoCyc. The GFP promoter library (Keseler et al., EcoCyc: fusing model organism databases with systems biology. Nucleic Acids Res 41, D605-612, doi:10.1093/nar/gks1027 (2013)) was grown for 18 hours at ambient temperature with the same inoculation strategy as with the Keio collection. The analysis pipeline of Zaslaver et al (Zaslaver et al., A comprehensive library of fluorescent transcriptional reporters for Escherichia coli. Nat Methods 3, 623-628, doi:10.1038/nmeth895 (2006)) was used to generate maps of promoter activity, from which lists of promoters with increased or decreased activity were compiled.

[2] = tested on: E. coli; assay: microbe, parasite or virus in culture; format: cell-based, Escherichia coli
[3] = tested on: S. aureus; assay: Checkerboard microdilution with sodium bicarbonate against S. aureus; format: cell-based, Staphylococcus aureus
Method: as §1
(§2) The effect of sodium bicarbonate on the activity of various antibacterial agents was investigated. Clinical isolates of various bacteria were obtained from the American Type Culture Collection (“ATCC”) and the International Health Management Associates (“IHMA”). Fractional inhibitory concentration indices (FICIs) were determined by setting up standard checkerboard broth microdilution assays in 96-well microtiter plates with serially diluted 8 (or 10) concentrations of each drug (sodium bicarbonate and the antibacterial agent). The protocol for checkerboard analyses was based on the CLSI guidelines. Plates were incubated at 37° C. for 18 hours, and optical density was read at 600 nm. At least 3 replicates were done for each query compound.
(§3) The FIC index (FICI) is the sum of the two FICs. Chemical-chemical interactions with ΣFIC of less or equal to 0.5 were deemed synergistic.
(§4) As validation, three of the antibiotic agents were further tested with checkerboard analyses. Checkerboard broth microdilution assays were set up in 96-well microtiter plates with serially diluted 8 (or 10) concentrations of each compound (sodium bicarbonate and the antibiotic). The protocol for checkerboard analyses was based on the CLSI guidelines. Plates were incubated at 37° C. for 18 hours, and optical density was read at 600 nm. At least 3 replicates were done for each query compound.

[4] = tested on: S. aureus; assay: microbe, parasite or virus in culture; details: for MIC, S. aureus, MHB− / MIC, S. aureus, MHB: MHB in the absence of sodium bicarbonate; for MIC in MHB / MIC in MHB + 25 mM bicarbonate: S. aureus (Newman strain) (MSSA)
[5] = tested on: E. coli; assay: Checkerboard microdilution with sodium bicarbonate against E. coli; format: cell-based, Escherichia coli
Method: as §1, §2, §3, §4

[6] = E. coli, salt at 25 mM, pH adjusted to 7.4
[7] = antibiotic agents, MHB in the presence of 25 mM sodium bicarbonate
[8] = antibiotic agents, fold shift in MIC, MHB− vs MHB+
[9] = antibiotic agents, MHB in the absence of sodium bicarbonate
[10] = MHB in the presence of 25 mM sodium bicarbonate
[11] = antiseptic agents, MHB in the presence of 25 mM sodium bicarbonate
[12] = antiseptic agents, fold shift in MIC

OB(O)O [Boric acid]
FIC Index (with pentamidine in S. aureus) [1]: 1
MIC of dirithromycin in the presence of the salt [2]: 128 mg/L

c1cc2c(cc1C1CCCCC1)c1c3n2CCN=C3CCC1 [I1]
interaction with sodium bicarbonate (checkerboard) [3]: synergistic interactions

COc1ccc(-c2n(CC(=O)OC3CC(C)CCC3C(C)C)c3ccccc3[n+]2C)cc1.[Cl-] (stereo not drawn) [I2]
interaction with sodium bicarbonate (checkerboard) [3]: synergistic interactions

CC1=CCCC2C1CCC(C)C2(C)CC/C(C)=C/Cn1c[n+](C)c2c(N)ncnc21.[Cl-] (stereo not drawn) [I3]
interaction with sodium bicarbonate (checkerboard) [3]: synergistic interactions

O=S(=O)(O)CCO [Isethionic acid]
FIC Index (with pentamidine in S. aureus) [1]: 2
MIC of dirithromycin in the presence of the salt [2, 6]: 128 mg/L

CC[C@H]1OC(=O)[C@H](C)[C@@H](O[C@H]2C[C@@](C)(OC)[C@@H](O)[C@H](C)O2)[C@H](C)[C@@H](O[C@@H]2O[C@H](C)C[C@H](N(C)C)[C@H]2O)[C@](C)(O)C[C@@H](C)/C(=N\OCOCCOC)[C@H](C)[C@@H](O)[C@]1(C)O [Roxithromycin]
MIC, S. aureus, MHB+ [4]: 0.5 μg of antimicrobial agent/mL of buffer
MIC ([4]; Staphylococcus aureus, 18 h, read-out: MIC, S. aureus, MHB−): 4 mg/L
interaction with sodium bicarbonate (checkerboard) [3]: synergistic interactions
MIC, E. coli, MHB+ [2]: 16 μg of antimicrobial agent/mL of buffer
MIC ([2]; Escherichia coli, 18 h, antibiotic agents, MHB in the absence of sodium bicarbonate, read-out: MIC, E. coli, MHB−): > 128 mg/L
interaction with sodium bicarbonate (checkerboard) [5]: synergistic interactions

CC(=O)[O-].[Na+] [Sodium acetate]
FIC Index (with pentamidine in S. aureus) [1]: 2
MIC of dirithromycin in the presence of the salt [2]: 64 mg/L

[Br-].[Na+] [Sodium bromide]
FIC Index (with pentamidine in S. aureus) [1]: 2
MIC of dirithromycin in the presence of the salt [2, 6]: 128 mg/L

[Cl-].[Na+] [Sodium chloride]
FIC Index (with pentamidine in S. aureus) [1]: 2
MIC of dirithromycin in the presence of the salt [2, 6]: 128 mg/L

[F-].[Na+] [Sodium fluoride]
FIC Index (with pentamidine in S. aureus) [1]: 1
MIC of dirithromycin in the presence of the salt [2, 6]: 128 mg/L

O=[N+]([O-])[O-].[Na+] [Sodium nitrate]
FIC Index (with pentamidine in S. aureus) [1]: 2
MIC of dirithromycin in the presence of the salt [2, 6]: 128 mg/L

O=P(O)(O)O [Sodium phosphate]
FIC Index (with pentamidine in S. aureus) [1]: >8
MIC of dirithromycin in the presence of the salt [2]: >128 mg/L

O=S(=O)([O-])[O-].[Na+].[Na+] [Sodium sulfate]
FIC Index (with pentamidine in S. aureus) [1]: 2
MIC of dirithromycin in the presence of the salt [2]: 128 mg/L

CN(C)C(=O)C(CCN1CCC(O)(c2ccc(Cl)cc2)CC1)(c1ccccc1)c1ccccc1 [loperamide]
interaction with sodium bicarbonate (checkerboard) [5]: synergistic interactions

CC(C)[C@@H]1NC(=O)[C@H](C)OC(=O)[C@@H](C(C)C)NC(=O)[C@@H](C(C)C)OC(=O)[C@H](C(C)C)NC(=O)[C@H](C)OC(=O)[C@@H](C(C)C)NC(=O)[C@@H](C(C)C)OC(=O)[C@H](C(C)C)NC(=O)[C@H](C)OC(=O)[C@@H](C(C)C)NC(=O)[C@@H](C(C)C)OC1=O [valinomycin]
interaction with sodium bicarbonate (checkerboard) [3]: synergistic interactions

Furadinozoline
MIC, S. aureus, MHB− ([4]; antibiotic agents): 32 μg of antimicrobial agent/mL of buffer
MIC, S. aureus, MHB+ [4, 7]: 16 μg of antimicrobial agent/mL of buffer
Fold, S. aureus [4, 8]: 2
MIC, E. coli, MHB− [2, 9]: 4 μg of antimicrobial agent/mL of buffer
MIC, E. coli, MHB+ [2, 7]: 4 μg of antimicrobial agent/mL of buffer
Fold, E. coli [2, 8]: 1

Gramicidin
MIC, S. aureus, MHB− ([4]; antibiotic agents): 1 μg of antimicrobial agent/mL of buffer
MIC, S. aureus, MHB+ [4, 7]: 0.25 μg of antimicrobial agent/mL of buffer
Fold, S. aureus [4, 8]: 4
MIC, E. coli, MHB− [2, 9]: >128 μg of antimicrobial agent/mL of buffer
MIC, E. coli, MHB+ [2, 7]: >128 μg of antimicrobial agent/mL of buffer
Fold, E. coli [2, 8]: 1

Hyaluronic acid
MIC in MHB [4]: 4 µg/mL
MIC in MHB + 25 mM bicarbonate [4]: 0.0625 µg/mL
enhancement of antimicrobial activity in the presence of bicarbonate ([4]; S. aureus, 25 mM sodium bicarbonate): 64 fold
enhancement of antimicrobial activity in the presence of bicarbonate [2]: 64 fold

Lysozyme
MIC in MHB [4]: >256** μg/mL
MIC in MHB + 25 mM bicarbonate [4]: >256** μg/mL
effect of 25 mM sodium bicarbonate on antibacterial activity ([2]; E. coli, result in words): enhanced

Neomycin
Fold, S. aureus [4]: 4
MIC, S. aureus, MHB− [4]: 2
MIC, S. aureus, MHB+ [4, 10]: 0.5
Fold, E. coli [2]: 4

Nisin
MIC, S. aureus, MHB− ([4]; antibiotic agents): >128 μg of antimicrobial agent/mL of buffer
MIC, S. aureus, MHB+ [4, 7]: >128 μg of antimicrobial agent/mL of buffer
Fold, S. aureus [4, 8]: 1
MIC, E. coli, MHB− [2, 9]: >128 μg of antimicrobial agent/mL of buffer
MIC, E. coli, MHB+ [2, 7]: >128 μg of antimicrobial agent/mL of buffer
Fold, E. coli [2, 8]: 1

Polyhexanide
MIC, S. aureus, MHB ([4]; antiseptic agents): 0.5 μg of antimicrobial agent/mL of buffer
MIC, S. aureus, MHB+ [4, 11]: 0.25 μg of antimicrobial agent/mL of buffer
Fold, S. aureus [4, 12]: 2
Fold, E. coli [2]: 2
MIC, E. coli, MHB [2]: 1 μg of antimicrobial agent/mL of buffer
MIC, E. coli, MHB+ [2]: 0.5 μg of antimicrobial agent/mL of buffer

Polymyxin B
Fold, S. aureus [4]: 8
MIC, S. aureus, MHB− [4]: 256
MIC, S. aureus, MHB+ [4, 10]: 32
effect of 25 mM sodium bicarbonate on antibacterial activity ([4]; S. aureus, result in words): enhanced
Fold, E. coli [2]: −2

Polyvinylpyrrolidone iodine complex
MIC, S. aureus, MHB ([4]; antiseptic agents): >128 μg of antimicrobial agent/mL of buffer
MIC, S. aureus, MHB+ [4, 11]: >128 μg of antimicrobial agent/mL of buffer
Fold, S. aureus [4, 12]: 1
MIC, E. coli, MHB ([2]; antiseptic agents, MHB in the absence of sodium bicarbonate): >128 μg of antimicrobial agent/mL of buffer
MIC, E. coli, MHB+ [2, 11]: >128 μg of antimicrobial agent/mL of buffer
Fold, E. coli [2, 12]: 1

Teicoplanin
MIC, S. aureus, MHB− ([4]; antibiotic agents): 1 μg of antimicrobial agent/mL of buffer
MIC, S. aureus, MHB+ [4, 7]: 2 μg of antimicrobial agent/mL of buffer
Fold, S. aureus [4, 8]: −2
MIC, E. coli, MHB+ [2]: 128 μg of antimicrobial agent/mL of buffer
MIC, E. coli, MHB− [2, 9]: 128 μg of antimicrobial agent/mL of buffer
Fold, E. coli [2, 8]: 1
